Test results taken from US20100285959A1, “HERBICIDAL MIXTURES” (priority 2006, published 2010).

Columns and labels:
corn (ZEAMD) [1] = test: Test 5 field trial, postemergence; assay type: in vivo, Zea mays ssp. indentata; conditions: atrazine 1120, glufosinate 470 or glyphosate 1120 g a.i./ha alone
Text: (§1) Corn seeds (hybrid ‘Pioneer 38H69’) were planted in mid spring season, 5.1 cm deep in a silty clay loam soil having 3% organic matter and a pH of 6.5. Plots were 9.1 m long by 3.0 m wide with rows spaced 76 cm apart. The field was managed using conventional tillage practices. […] All treatments included a surfactant except glufosinate treatments, both alone and in combination. […] Results are summarized in Table 5 and are the means of the three replicates.

velvetleaf (ABUTH) = test: Test 8 field trial, preemergence; assay type: in vivo, Abutilon theophrasti; conditions: g a.i./ha: Cpd 2 100, Atrazine 1680, S-Metolachlor 1870
Text: (§2) Corn seeds (hybrid ‘Pioneer 31G96’) were planted in mid spring season, 3.8 cm deep in a clay loam soil having 2% organic matter and a pH of 6.6. Plots were 6.1 m long by 3.0 m wide with rows spaced 76 cm apart. Seeds were spaced 15 cm apart within the rows. The field was managed using conventional tillage practices. […] A few of the weed species could not be evaluated at every timing. […] Results are the means of the three replicates.

common blackjack (BIDPI) = test: Test 11 field trial, preemergence; assay type: in vivo, Bidens pilosa; set-up: scale not given here
Text: Corn seeds (hybrid ‘Pioneer 3041’) were planted in mid spring season, 5 cm deep in a clay soil having 2.6% organic matter and a pH of 5.6. Plots were 8 m long by 1.5 m wide with rows spaced 80 cm apart. Seeds were spaced 15 cm apart within the rows. The field was managed using conventional tillage practices. […] Treatments consisted of Compound 2 or
Goosegrass was not evaluated 16 or 91 days after application.

giant foxtail (SETFA) [2] = test: Test 8 field trial, preemergence; assay type: in vivo, Setaria faberi; conditions: g a.i./ha: Cpd 2 100, Atrazine 1680, S-Metolachlor 1870
Text: as §2

common ragweed (AMBEL) [3] = test: Test 8 field trial, preemergence; assay type: in vivo, Ambrosia artemisiifolia; conditions: g a.i./ha: Cpd 2 100, Atrazine 1680, S-Metolachlor 1870
Text: as §2

common ragweed (AMBEL) [4] = test: Test 10 field trial, preemergence; assay type: in vivo, Ambrosia artemisiifolia; conditions: 28 DAA; g a.i./ha: Cpd 2 100, Atrazine 1680, S-Metolachlor 1870
Text: (§3) Corn seeds (hybrid ‘Pioneer 33P65 RR’) were planted in mid spring season, 2.5 cm deep in a silt loam soil. Plots were 9.1 m long by 3.0 m wide with rows spaced 76 cm apart. The field was managed using conventional tillage practices. […] Results are the means of the three replicates.

common cocklebur (XANST) = test: Test 10 field trial, preemergence; assay type: in vivo, Xanthium strumarium ssp. strumarium; conditions: 28 DAA; g a.i./ha: Cpd 2 100, Atrazine 1680, S-Metolachlor 1870
Text: as §3

[5] = test system: Pennsylvania smartweed (POLPY); test: Test 6 field trial, postemergence; assay type: in vivo, Polygonum pensylvanicum; conditions: 1120 g a.i./ha
Text: Corn seeds (hybrid ‘Pioneer 35Y62’) were planted in mid spring season, 3.8 cm deep in a silt loam soil having 4% organic matter and a pH of 5.8. Plots were 10.7 m long by 1.5 m wide with rows spaced 76 cm apart. Seeds were spaced 18 cm apart within the rows. The field was managed using conventional tillage practices. […] All treatments included a surfactant except glufosinate treatments, both alone and in combination. […] Results are summarized in Table 6 and are the means of the three replicates.

[6] = test system: ivyleaf morningglory (IPOHE); test: Test 8 field trial, preemergence; assay type: in vivo, Ipomoea hederacea; conditions: g a.i./ha: Cpd 2 100, Atrazine 1680, S-Metolachlor 1870
Text: as §2

shepherd's purse (CAPBP) = test: Test 5 field trial, postemergence; assay type: in vivo, Capsella bursa-pastoris; conditions: atrazine 1120, glufosinate 470 or glyphosate 1120 g a.i./ha alone
Text: as §1

field pennycress (THLAR) = test: Test 5 field trial, postemergence; assay type: in vivo, Thlaspi arvense; conditions: atrazine 1120, glufosinate 470 or glyphosate 1120 g a.i./ha alone
Text: as §1

corn (ZEAMD) [7] = test: Test 1 field trial, preemergence; assay type: in vivo, Zea mays ssp. indentata; set-up: scale not given here; conditions: g a.i./ha: Atrazine 1680, S-Metolachlor 1870
Text: Corn seeds (hybrid ‘Pioneer 34N43’) were planted in mid spring season, 3.8 cm deep in a silt loam soil having 4.6% organic matter and a pH of 6. Plots were 10.7 m long by 1.5 m wide with rows spaced 76 cm apart. Seeds were spaced 18 cm apart within the rows. The field was managed using conventional tillage practices. […] Results are summarized in Table 1 and are the means of the three replicates. […] Colby's Equation (Colby, S. R. “Calculating Synergistic and Antagonistic Responses of Herbicide Combinations,” Weeds, 15(1), pp 20-22 (1967)) calculates the expected additive effect of herbicidal mixtures, and for two active ingredients is of the form:
Pa+b=Pa+Pb−(PaPb/100) • wherein Pa+b is the percentage effect of the mixture expected from additive contribution of the individual components, • Pa is the observed percentage effect of the first active ingredient at the same use rate as in the mixture, and • Pb is the observed percentage effect of the second active ingredient at the same use rate as in the mixture.

giant foxtail (SETFA) [8] = test: Test 5 field trial, postemergence; assay type: in vivo, Setaria faberi; conditions: atrazine 1120, glufosinate 470 or glyphosate 1120 g a.i./ha alone
Text: as §1

[9] = test system: Pennsylvania smartweed (POLPY); test: Test 8 field trial, preemergence; assay type: in vivo, Polygonum pensylvanicum
Text: as §2

[10] = 29 DAA, g a.i./ha: Cpd 2 100, Atrazine 1680, S-Metolachlor 1870

Compound	ZEAMD Obs (corn (ZEAMD) [1]; 16 DAA) [%]	ZEAMD Obs (corn (ZEAMD) [1]; 31 DAA) [%]	ABUTH Obs (velvetleaf (ABUTH); 19 DAA) [%]	ABUTH Obs (velvetleaf (ABUTH); 29 DAA) [%]	ABUTH Obs (velvetleaf (ABUTH); 56 DAA) [%]	SETFA Obs (giant foxtail (SETFA) [2]; 19 DAA) [%]	SETFA Obs (giant foxtail (SETFA) [2]; 29 DAA) [%]	SETFA Obs (giant foxtail (SETFA) [2]; 56 DAA) [%]	AMBEL Obs (common ragweed (AMBEL) [3]; 19 DAA) [%]	AMBEL Obs (common ragweed (AMBEL) [3]; 29 DAA) [%]	AMBEL Obs (common ragweed (AMBEL) [3]; 56 DAA) [%]	AMBEL Obs (common ragweed (AMBEL) [4]) [%]	XANST Obs (common cocklebur (XANST)) [%]	POLPY Obs ([5]; 14 DAA) [%]	POLPY Obs ([5]; 28 DAA) [%]	IPOHE Obs ([6]; 19 DAA) [%]	IPOHE Obs ([6]; 29 DAA) [%]	IPOHE Obs ([6]; 56 DAA) [%]	CAPBP Obs (shepherd's purse (CAPBP); 16 DAA) [%]	CAPBP Obs (shepherd's purse (CAPBP); 31 DAA) [%]	further results
CCNc1nc(Cl)nc(NC(C)C)n1 [Atrazine, atrazine, reference compound]	0	0	87	99	98	60	88	67	83	98	100	95	40	73	83	45	100	95	95	100	BIDPI Obs (common blackjack (BIDPI); 16 DAA, atrazine 1500 or metolachlor 2500 g a.i./ha alone): 100; BIDPI Obs (common blackjack (BIDPI); 30 DAA, atrazine 1500 or metolachlor 2500 g a.i./ha alone): 97; BIDPI Obs (common blackjack (BIDPI); 44 DAA, atrazine 1500 or metolachlor 2500 g a.i./ha alone): 80; BIDPI Obs (common blackjack (BIDPI); 62 DAA, atrazine 1500 or metolachlor 2500 g a.i./ha alone): 70; BIDPI Obs (common blackjack (BIDPI); 91 DAA, atrazine 1500 or metolachlor 2500 g a.i./ha alone): 40; THLAR Obs (field pennycress (THLAR); 16 DAA): 95%; THLAR Obs (field pennycress (THLAR); 31 DAA): 100%; ZEAMD Obs (corn (ZEAMD) [7]; 28 DAA): 0; ZEAMD Obs (corn (ZEAMD) [7]; 56 DAA): 0; SETFA Obs (giant foxtail (SETFA) [8]; 16 DAA): 0%; SETFA Obs (giant foxtail (SETFA) [8]; 31 DAA): 0%; POLPY Obs [9, 10]: 100%; POLPY Obs ([9]; 56 DAA, g a.i./ha: Cpd 2 100, Atrazine 1680): 100%
O=C(O)CNCP(=O)(O)O [Glyphosate]	0	0	–	–	–	–	–	–	–	–	–	–	–	84	91	–	–	–	98	100	THLAR Obs (field pennycress (THLAR); 16 DAA): 98%; THLAR Obs (field pennycress (THLAR); 31 DAA): 100%; SETFA Obs (giant foxtail (SETFA) [8]; 16 DAA): 100%; SETFA Obs (giant foxtail (SETFA) [8]; 31 DAA): 98%
Nc1nc(C2CC2)nc(C(=O)O)c1Cl [Compound 1, 6-amino-5-chloro-2-cyclopropyl-4-pyrimidinecarboxylic acid]	–	–	–	–	–	–	–	–	–	–	–	–	–	–	–	–	–	–	–	–	BIDPI Obs (common blackjack (BIDPI); 16 DAA, Cpd 2/Cpd 1 at 62 g a.i./ha, alone or + atrazine 1500 or metolachlor 2500): 60; BIDPI Obs (common blackjack (BIDPI); 16 DAA, Cpd 2/Cpd 1 at 125 g a.i./ha, alone or + atrazine 1500 or metolachlor 2500): 80; BIDPI Obs (common blackjack (BIDPI); 30 DAA, Cpd 2/Cpd 1 at 62 g a.i./ha, alone or + atrazine 1500 or metolachlor 2500): 60; BIDPI Obs (common blackjack (BIDPI); 30 DAA, Cpd 2/Cpd 1 at 125 g a.i./ha, alone or + atrazine 1500 or metolachlor 2500): 80; BIDPI Obs (common blackjack (BIDPI); 44 DAA, Cpd 2/Cpd 1 at 62 g a.i./ha, alone or + atrazine 1500 or metolachlor 2500): 40; BIDPI Obs (common blackjack (BIDPI); 44 DAA, Cpd 2/Cpd 1 at 125 g a.i./ha, alone or + atrazine 1500 or metolachlor 2500): 80; BIDPI Obs (common blackjack (BIDPI); 62 DAA, Cpd 2/Cpd 1 at 62 g a.i./ha, alone or + atrazine 1500 or metolachlor 2500): 40; BIDPI Obs (common blackjack (BIDPI); 62 DAA, Cpd 2/Cpd 1 at 125 g a.i./ha, alone or + atrazine 1500 or metolachlor 2500): 60; BIDPI Obs (common blackjack (BIDPI); 91 DAA, Cpd 2/Cpd 1 at 62 g a.i./ha, alone or + atrazine 1500 or metolachlor 2500): 0; BIDPI Obs (common blackjack (BIDPI); 91 DAA, Cpd 2/Cpd 1 at 125 g a.i./ha, alone or + atrazine 1500 or metolachlor 2500): 70
CCc1cccc(C)c1N(C(=O)CCl)[C@@H](C)COC [S-Metolachlor, S-metolachlor, reference compound]	–	–	28	42	18	93	100	94	32	23	23	20	30	–	–	10	25	3	–	–	ZEAMD Obs (corn (ZEAMD) [7]; 28 DAA): 0; ZEAMD Obs (corn (ZEAMD) [7]; 56 DAA): 0; POLPY Obs [9, 10]: 100%
